{
  "source": "patent US8987195B2",
  "about": "(priority 2012, dated 2015)",
  "key": {"HCV genotype 1b replicon": {"tested_on": "HCV genotype 1b replicon", "experiment": "HCV replicon assay, genotype 1b replicon EC50", "assay_type": "cell-based, Hepatitis C virus", "conditions": "Hepatitis C virus, genotype 1b replicon, read-out: EC50 [gt-1b]", "summary_of_the_method": "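Cells harbouring a stable replicon are grown under G418 selection, then plated with test compound in G418-free medium for 24-48 hours. After washing and lysis, RNA or luciferase signal is measured and expressed as percent of DMSO control to give EC50.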"}, "[1]": {"molecular_target": "HCV NS3/4A protease genotype 1b (Hepatitis C virus genotype 1b, UniProt P26663)", "experiment": "HCV NS3/4A protease time-resolved fluorescence (TRF) assay, Ki against genotype 1b", "assay_type": "biochemical", "conditions": "IC50 [gt-1b] (nM), NS3/4A genotype 1b, enzyme 0.2 nM", "summary_of_the_method": "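Enzyme was pre-incubated 30 min with inhibitor in HEPES pH 7.5 buffer (150 mM NaCl, 15% glycerol, 10 mM DTT). Reaction ran 2.5 h at room temperature with 25 nM europium TRF peptide substrate, read at ex 340/em 615 nm. Enzyme levels: 0.2 nM (1b), 0.4 nM (A156T), 0.025 nM (3a). Ki came from four-parameter IC50 via IC50=Ki(1+[S]/KM).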"}},
  "note": "Where two headings read alike, the source gives them in different places.",
  "data": [
    {"smiles": "Cc1nc2ccc(Cl)cc2c2c1O[C@]1(CC2)C[C@H]2C(=O)N[C@]3(C(=O)NS(=O)(=O)C4(C)CC4)C[C@H]3/C=C\\CCCCC[C@H](NC(=O)OCC3CC3)C(=O)N2C1", "note": "[Example 222, cyclopropylmethyl [(2R,6S,12Z,13aS,14aR,16aS)-9′-chloro-5′-methyl-14a-{[(1-methylcyclopropyl)sulfonyl]carbamoyl}-5,16-dioxo-1,1′,2′,5,6,7,8,9,10,11,13a,14,14a,15,16,16a-hexadecahydrospiro[cyclopropa[e]pyrrolo[1,2-a][1,4]diazacyclopentadecine-2,3′-pyrano[2,3-c]quinolin]-6-yl]carbamate]", "values": [
      {"measurement": "EC50", "setting": "HCV genotype 1b replicon; K+ salt", "result": 4.78, "unit": "nM"},
      {"measurement": "IC50", "setting": "[1]; K+ salt", "result": 0.009, "unit": "nM"}
    ]},
    {"smiles": "Cc1nc2cc(F)c(F)cc2c2c1O[C@]1(CC2)C[C@H]2C(=O)N[C@]3(C(=O)NS(=O)(=O)C4(C)CC4)C[C@H]3/C=C\\CCCCC[C@H](NC(=O)OCC3(C)CC3)C(=O)N2C1", "note": "[Example 223, (1-methylcyclopropyl)methyl [(2R,6S,12Z,13aS,14aR,16aS)-8′,9′-difluoro-5′-methyl-14a-{[(1-methylcyclopropyl)sulfonyl]carbamoyl}-5,16-dioxo-1,1′,2′,5,6,7,8,9,10,11,13a,14,14a,15,16,16a-hexadecahydrospiro[cyclopropa[e]pyrrolo[1,2-a][1,4]diazacyclopentadecine-2,3′-pyrano[2,3-c]quinolin]-6-yl]carbamate]", "values": [
      {"measurement": "EC50", "setting": "HCV genotype 1b replicon", "result": 11.1, "unit": "nM"},
      {"measurement": "IC50", "setting": "[1]", "result": 0.013, "unit": "nM"}
    ]},
    {"smiles": "Cc1nc2cc(F)c(F)cc2c2c1O[C@]1(CC2)C[C@H]2C(=O)N[C@]3(C(=O)NS(=O)(=O)C4(C)CC4)C[C@H]3/C=C\\CCCCC[C@H](NC(=O)OCC3CC3)C(=O)N2C1", "note": "[Example 224, cyclopropylmethyl [(2R,6S,12Z,13aS,14aR,16aS)-8′,9′-difluoro-5′-methyl-14a-{[(1-methylcyclopropyl)sulfonyl]carbamoyl}-5,16-dioxo-1,1′,2′,5,6,7,8,9,10,11,13a,14,14a,15,16,16a-hexadecahydrospiro[cyclopropa[e]pyrrolo[1,2-a][1,4]diazacyclopentadecine-2,3′-pyrano[2,3-c]quinolin]-6-yl]carbamate]", "values": [
      {"measurement": "EC50", "setting": "HCV genotype 1b replicon", "result": 6.73, "unit": "nM"},
      {"measurement": "IC50", "setting": "[1]", "result": 0.019, "unit": "nM"}
    ]},
    {"smiles": "Cc1nc2cc(F)c(F)cc2c2c1O[C@]1(CC2)C[C@H]2C(=O)N[C@]3(C(=O)NS(=O)(=O)C4(C)CC4)C[C@H]3/C=C\\CCCCC[C@H](NC(=O)OCC3CCC3)C(=O)N2C1", "note": "[Example 225, cyclobutylmethyl [(2R,6S,12Z,13aS,14aR,16aS)-8′,9′-difluoro-5′-methyl-14a-{[(1-methylcyclopropyl)sulfonyl]carbamoyl}-5,16-dioxo-1,1′,2′,5,6,7,8,9,10,11,13a,14,14a,15,16,16a-hexadecahydrospiro[cyclopropa[e]pyrrolo[1,2-a][1,4]diazacyclopentadecine-2,3′-pyrano[2,3-c]quinolin]-6-yl]carbamate]", "values": [
      {"measurement": "EC50", "setting": "HCV genotype 1b replicon", "result": 12.5, "unit": "nM"},
      {"measurement": "IC50", "setting": "[1]", "result": 0.031, "unit": "nM"}
    ]},
    {"smiles": "Cc1nc2ccc(OC(F)(F)F)cc2c2c1O[C@]1(CC2)C[C@H]2C(=O)N[C@]3(C(=O)NS(=O)(=O)C4(C)CC4)C[C@H]3/C=C\\CCCCC[C@H](NC(=O)OC(C)(C)CCS(C)(=O)=O)C(=O)N2C1", "note": "[Example 226, 2-methyl-4-(methylsulfonyl)butan-2-yl [(2R,6S,12Z,13aS,14aR,16aS)-5′-methyl-14a-{[(1-methylcyclopropyl)sulfonyl]carbamoyl}-5,16-dioxo-9′-(trifluoromethoxy)-1,1′,2′,5,6,7,8,9,10,11,13a,14,14a,15,16,16a-hexadecahydrospiro[cyclopropa[e]pyrrolo[1,2-a][1,4]diazacyclopentadecine-2,3′-pyrano[2,3-c]quinolin]-6-yl]carbamate]", "values": [
      {"measurement": "EC50", "setting": "HCV genotype 1b replicon; K+ salt", "result": 18, "unit": "nM"},
      {"measurement": "IC50", "setting": "[1]; K+ salt", "result": 0.021, "unit": "nM"}
    ]},
    {"smiles": "Cc1nc2ccc(OC(F)(F)F)cc2c2c1O[C@@]1(C[C@H]3C(=O)N[C@]4(C(=O)NS(=O)(=O)C5(C)CC5)C[C@H]4/C=C\\CCCCC[C@H](NC(=O)OC4CCCC4)C(=O)N3C1)CC2(F)F", "note": "[Example 227, cyclopentyl [(2S,6S,12Z,13aS,14aR,16aS)-1′,1′-difluoro-5′-methyl-14a-{[(1-methylcyclopropyl)sulfonyl]carbamoyl}-5,16-dioxo-9′-(trifluoromethoxy)-1,1′,2′,5,6,7,8,9,10,11,13a,14,14a,15,16,16a-hexadecahydrospiro[cyclopropa[e]pyrrolo[1,2-a][1,4]diazacyclopentadecine-2,3′-pyrano[2,3-c]quinolin]-6-yl]carbamate]", "values": [
      {"measurement": "EC50", "setting": "HCV genotype 1b replicon; K+ salt", "result": 28.4, "unit": "nM"},
      {"measurement": "IC50", "setting": "[1]; K+ salt", "result": 0.043, "unit": "nM"}
    ]},
    {"smiles": "Cc1nc2ccccc2c2c1O[C@]1(CC2)C[C@H]2C(=O)N[C@]3(C(=O)NS(=O)(=O)C4(C)CC4)C[C@H]3/C=C\\CCCCC[C@H](NC(=O)N(C)C)C(=O)N2C1", "note": "[Example 228, (2R,6S,12Z,13aS,14aR,16aS)-6-[(dimethylcarbamoyl)amino]-5′-methyl-N-[(1-methylcyclopropyl)sulfonyl]-5,16-dioxo-1,1′,2′,6,7,8,9,10,11,13a,14,15,16,16a-tetradecahydrospiro[cyclopropa[e]pyrrolo[1,2-a][1,4]diazacyclopentadecine-2,3′-pyrano[2,3-c]quinoline]-14a(5H)-carboxamide]", "values": [
      {"measurement": "EC50", "setting": "HCV genotype 1b replicon", "result": 6.63, "unit": "nM"},
      {"measurement": "IC50", "setting": "[1]", "result": 0.025, "unit": "nM"}
    ]},
    {"smiles": "Cc1nc2ccccc2c2c1O[C@]1(CC2)C[C@H]2C(=O)N[C@]3(C(=O)NS(=O)(=O)C4(C)CC4)C[C@H]3/C=C\\CCCCC[C@H](NS(C)(=O)=O)C(=O)N2C1", "note": "[Example 229, (2R,6S,12Z,13aS,14aR,16aS)-5′-methyl-N-[(1-methylcyclopropyl)sulfonyl]-6-[(methylsulfonyl)amino]-5,16-dioxo-1,1′,2′,6,7,8,9,10,11,13a,14,15,16,16a-tetradecahydrospiro[cyclopropa[e]pyrrolo[1,2-a][1,4]diazacyclopentadecine-2,3′-pyrano[2,3-c]quinoline]-14a(5H)-carboxamide]", "values": [
      {"measurement": "EC50", "setting": "HCV genotype 1b replicon", "result": 14.6, "unit": "nM"},
      {"measurement": "IC50", "setting": "[1]", "result": 0.122, "unit": "nM"}
    ]},
    {"smiles": "Cc1nc2ccccc2c2c1O[C@]1(CC2)C[C@H]2C(=O)N[C@]3(C(=O)NS(=O)(=O)C4(C)CC4)C[C@H]3/C=C\\CCCCC[C@H](NS(=O)(=O)C3CC3)C(=O)N2C1", "note": "[Example 230, (2R,6S,12Z,13aS,14aR,16aS)-6-[(cyclopropylsulfonyl)amino]-5′-methyl-N-[(1-methylcyclopropyl)sulfonyl]-5,16-dioxo-1,1′,2′,6,7,8,9,10,11,13a,14,15,16,16a-tetradecahydrospiro[cyclopropa[e]pyrrolo[1,2-a][1,4]diazacyclopentadecine-2,3′-pyrano[2,3-c]quinoline]-14a(5H)-carboxamide]", "values": [
      {"measurement": "EC50", "setting": "HCV genotype 1b replicon", "result": 57.8, "unit": "nM"},
      {"measurement": "IC50", "setting": "[1]", "result": 0.265, "unit": "nM"}
    ]},
    {"smiles": "Cc1nc2ccc(Cl)cc2c2c1O[C@]1(CC2)C[C@H]2C(=O)N[C@]3(C(=O)NS(=O)(=O)C4(C)CC4)C[C@H]3/C=C\\CCCCC[C@H](NC(=O)OCC3CCCC3)C(=O)N2C1", "note": "[Example 231, cyclopentylmethyl [(2R,6S,12Z,13aS,14aR,16aS)-9′-chloro-5′-methyl-14a-{[(1-methylcyclopropyl)sulfonyl]carbamoyl}-5,16-dioxo-1,1′,2′,5,6,7,8,9,10,11,13a,14,14a,15,16,16a-hexadecahydrospiro[cyclopropa[e]pyrrolo[1,2-a][1,4]diazacyclopentadecine-2,3′-pyrano[2,3-c]quinolin]-6-yl]carbamate]", "values": [
      {"measurement": "EC50", "setting": "HCV genotype 1b replicon", "result": 4.77, "unit": "nM"},
      {"measurement": "IC50", "setting": "[1]", "result": 0.024, "unit": "nM"}
    ]},
    {"smiles": "Cc1nc2cc(F)c(F)cc2c2c1O[C@]1(CC2)C[C@H]2C(=O)N[C@]3(C(=O)NS(=O)(=O)C4(C)CC4)C[C@H]3/C=C\\CCCCC[C@H](NC(=O)OCC3CCCC3)C(=O)N2C1", "note": "[Example 232, cyclopentylmethyl [(2R,6S,12Z,13aS,14aR,16aS)-8′,9′-difluoro-5′-methyl-14a-{[(1-methylcyclopropyl)sulfonyl]carbamoyl}-5,16-dioxo-1,1′,2′,5,6,7,8,9,10,11,13a,14,14a,15,16,16a-hexadecahydrospiro[cyclopropa[e]pyrrolo[1,2-a][1,4]diazacyclopentadecine-2,3′-pyrano[2,3-c]quinolin]-6-yl]carbamate]", "values": [
      {"measurement": "EC50", "setting": "HCV genotype 1b replicon", "result": 12.9, "unit": "nM"},
      {"measurement": "IC50", "setting": "[1]", "result": 0.085, "unit": "nM"}
    ]},
    {"smiles": "Cc1nc2cc(Cl)ccc2c2c1O[C@]1(CC2)C[C@H]2C(=O)N[C@]3(C(=O)NS(=O)(=O)C4(C)CC4)C[C@H]3/C=C\\CCCCC[C@H](NC(=O)OC(C)(C)C)C(=O)N2C1", "note": "[Example 233, tert-butyl [(2R,6S,12Z,13aS,14aR,16aS)-8′-chloro-5′-methyl-14a-{[(1-methylcyclopropyl)sulfonyl]carbamoyl}-5,16-dioxo-1,1′,2′,5,6,7,8,9,10,11,13a,14,14a,15,16,16a-hexadecahydrospiro[cyclopropa[e]pyrrolo[1,2-a][1,4]diazacyclopentadecine-2,3′-pyrano[2,3-c]quinolin]-6-yl]carbamate]", "values": [
      {"measurement": "EC50", "setting": "HCV genotype 1b replicon", "result": 1.51, "unit": "nM"},
      {"measurement": "IC50", "setting": "[1]", "result": 0.051, "unit": "nM"}
    ]},
    {"smiles": "Cc1nc2cc(Cl)ccc2c2c1O[C@]1(CC2)C[C@H]2C(=O)N[C@]3(C(=O)NS(=O)(=O)C4(C)CC4)C[C@H]3/C=C\\CCCCC[C@H](NC(=O)OCC(C)C)C(=O)N2C1", "note": "[Example 234, 2-methylpropyl [(2R,6S,12Z,13aS,14aR,16aS)-8′-chloro-5′-methyl-14a-{[(1-methylcyclopropyl)sulfonyl]carbamoyl}-5,16-dioxo-1,1′,2′,5,6,7,8,9,10,11,13a,14,14a,15,16,16a-hexadecahydrospiro[cyclopropa[e]pyrrolo[1,2-a][1,4]diazacyclopentadecine-2,3′-pyrano[2,3-c]quinolin]-6-yl]carbamate]", "values": [
      {"measurement": "EC50", "setting": "HCV genotype 1b replicon; K+ salt", "result": 4.48, "unit": "nM"},
      {"measurement": "IC50", "setting": "[1]; K+ salt", "result": 0.025, "unit": "nM"}
    ]}
  ]
}
